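Five compound concentrations were applied to cells in 96-well plates for 48 hours; endpoints were derived by simple linear interpolation of the resulting dose-response curve. GI50 marks 50% less growth.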 The source made the active and inactive calls. No stated cut-off is given here; in the data, active = GI50 up to about 1.1 µM and inactive = higher.
How the values were obtained:
Experiment in all cases: NCI tumour cell line growth inhibition, 48 h
[1] = test system: SK-MEL-5
[2] = test system: Malme-3M
[3] = test system: KM12
[4] = test system: M14
[5] = test system: HT-29
[6] = test system: SK-MEL-2
[7] = test system: SN12C
[8] = test system: OVCAR-5
[9] = test system: EKVX
[10] = test system: SW-620
[11] = test system: NCI-H460
[12] = test system: OVCAR-8
[13] = test system: OVCAR-3
[14] = test system: UACC-257
[15] = test system: CAKI-1
[16] = test system: SNB-19
[17] = test system: U-251
[18] = test system: A498
[19] = test system: IGROV-1
[20] = test system: HCC 2998

SMILES | GI50 [1] | GI50 [2] | GI50 [3] | GI50 [4] | GI50 [5] | GI50 [6] | GI50 [7] | GI50 [8] | GI50 [9] | GI50 [10] | GI50 [11] | GI50 [12] | GI50 [13] | GI50 [14] | GI50 [15] | GI50 [16] | GI50 [17] | GI50 [18] | GI50 [19] | GI50 [20]
C=C(C)C1CCC2=CC(CC3(C)OC3C3=CC(C(=O)OC)=C(C1)O3)OC2=O (centres undefined) | 72.3 µM (inactive) | > 100 µM (inactive) | 98.4 µM (inactive) | > 100 µM (inactive) | > 100 µM (inactive) | > 100 µM (inactive) | > 100 µM (inactive) | > 100 µM (inactive) | > 100 µM (inactive) | > 100 µM (inactive) | > 100 µM (inactive) | > 100 µM (inactive) | > 100 µM (inactive) | > 100 µM (inactive) | > 100 µM (inactive) | > 100 µM (inactive) | > 100 µM (inactive) | > 100 µM (inactive) | > 100 µM (inactive) | –
COc1ccc2c(c1)SC1=Nc3sc4cc(OC)ccc4[n+]3CN12 | 4.1 µM (inactive) | 14.6 µM (inactive) | 11.2 µM (inactive) | 33.1 µM (inactive) | 16.2 µM (inactive) | 15.8 µM (inactive) | 25.5 µM (inactive) | 96.2 µM (inactive) | 26.4 µM (inactive) | 35.7 µM (inactive) | 17.2 µM (inactive) | 29.4 µM (inactive) | 2.72 µM (inactive) | 30.4 µM (inactive) | 32.9 µM (inactive) | 54.3 µM (inactive) | 4.34 µM (inactive) | – | 24.9 µM (inactive) | –
N#CC(/C(CCCC(=O)Nc1cccc([N+](=O)[O-])c1)=N\NC(=O)c1c(O)ccc2ccccc12)c1nc2ccccc2s1 (centres undefined) | 28.2 µM (inactive) | 35 µM (inactive) | 28.8 µM (inactive) | 26.9 µM (inactive) | 37 µM (inactive) | 27.1 µM (inactive) | 25.6 µM (inactive) | 37.7 µM (inactive) | 35.4 µM (inactive) | 44.8 µM (inactive) | 13.7 µM (inactive) | 18.5 µM (inactive) | 16.3 µM (inactive) | 35.5 µM (inactive) | 36.7 µM (inactive) | 36.8 µM (inactive) | 16.3 µM (inactive) | 35.1 µM (inactive) | 13.3 µM (inactive) | –
Cc1cc(C)c2c(=O)n(CN3CCC(C#N)(c4ccccc4)CC3)sc2n1 | 72.1 µM (inactive) | 22.5 µM (inactive) | > 100 µM (inactive) | 50.2 µM (inactive) | 39.9 µM (inactive) | > 100 µM (inactive) | > 100 µM (inactive) | 30.9 µM (inactive) | 52.7 µM (inactive) | 24.4 µM (inactive) | 40.4 µM (inactive) | 28.6 µM (inactive) | 83 µM (inactive) | 22.2 µM (inactive) | 39.3 µM (inactive) | > 100 µM (inactive) | > 100 µM (inactive) | > 100 µM (inactive) | > 100 µM (inactive) | –
CCC(=O)OC[n+]1ccc2c(C)c3[nH]c4ccc(OC)cc4c3c(C)c2c1 | 0.728 µM (active) | 0.627 µM (active) | 0.0875 µM (active) | 0.333 µM (active) | 0.0568 µM (active) | 0.291 µM (active) | < 0.01 µM (active) | 0.299 µM (active) | – | 0.0288 µM (active) | 0.0199 µM (active) | 0.0755 µM (active) | 1.34 µM (inactive) | 0.7 µM (active) | 0.188 µM (active) | 1.57 µM (inactive) | 0.0547 µM (active) | 1.06 µM (active) | 0.048 µM (active) | –
CC1OC(n2ccc3ccc([N+](=O)[O-])cc32)C(O)C(O)C1O (centres undefined) | > 100 µM (inactive) | > 100 µM (inactive) | > 100 µM (inactive) | > 100 µM (inactive) | > 100 µM (inactive) | > 100 µM (inactive) | > 100 µM (inactive) | > 100 µM (inactive) | > 100 µM (inactive) | > 100 µM (inactive) | > 100 µM (inactive) | > 100 µM (inactive) | > 100 µM (inactive) | > 100 µM (inactive) | > 100 µM (inactive) | > 100 µM (inactive) | > 100 µM (inactive) | > 100 µM (inactive) | > 100 µM (inactive) | –
Cc1ccc(C(=O)Nc2ccccc2)cc1/N=N/N(C)C | > 100 µM (inactive) | – | > 100 µM (inactive) | > 100 µM (inactive) | > 100 µM (inactive) | > 100 µM (inactive) | > 100 µM (inactive) | – | > 100 µM (inactive) | > 100 µM (inactive) | > 100 µM (inactive) | > 100 µM (inactive) | > 100 µM (inactive) | > 100 µM (inactive) | > 100 µM (inactive) | > 100 µM (inactive) | > 100 µM (inactive) | – | > 100 µM (inactive) | > 100 µM (inactive)
